Data on 22 compounds can be found in patent US20230357269A1 (LES LABORATOIRES SERVIER, priority 2020, published 2023).

pIC50: −log10 of the molar value.

A word on the pIC50: it is the negative decadic logarithm of the IC50, by convention in mol/L.

In the experiment the target is human recombinant LRRK2 protein (Homo sapiens (Human), UniProt Q5S007). The experiment in a line: LRRK2 Kinase Activity Assay (ADP-Glo). In kind it is biochemical. Conditions: LRRK2 wt; LRRKtide peptide and ATP substrates; 1h-incubation at 37° C. The method in brief: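 Recombinant human LRRK2 acted on LRRKtide peptide and ATP for 1 h at 37 °C. ADP formed was detected by ADP-Glo luminescence (ATP depletion, then ADP-to-ATP conversion and luciferase). IC50s came from curve fits over 10 concentrations (N=2).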
Sequence of human recombinant LRRK2 protein (Q5S007 whole entry): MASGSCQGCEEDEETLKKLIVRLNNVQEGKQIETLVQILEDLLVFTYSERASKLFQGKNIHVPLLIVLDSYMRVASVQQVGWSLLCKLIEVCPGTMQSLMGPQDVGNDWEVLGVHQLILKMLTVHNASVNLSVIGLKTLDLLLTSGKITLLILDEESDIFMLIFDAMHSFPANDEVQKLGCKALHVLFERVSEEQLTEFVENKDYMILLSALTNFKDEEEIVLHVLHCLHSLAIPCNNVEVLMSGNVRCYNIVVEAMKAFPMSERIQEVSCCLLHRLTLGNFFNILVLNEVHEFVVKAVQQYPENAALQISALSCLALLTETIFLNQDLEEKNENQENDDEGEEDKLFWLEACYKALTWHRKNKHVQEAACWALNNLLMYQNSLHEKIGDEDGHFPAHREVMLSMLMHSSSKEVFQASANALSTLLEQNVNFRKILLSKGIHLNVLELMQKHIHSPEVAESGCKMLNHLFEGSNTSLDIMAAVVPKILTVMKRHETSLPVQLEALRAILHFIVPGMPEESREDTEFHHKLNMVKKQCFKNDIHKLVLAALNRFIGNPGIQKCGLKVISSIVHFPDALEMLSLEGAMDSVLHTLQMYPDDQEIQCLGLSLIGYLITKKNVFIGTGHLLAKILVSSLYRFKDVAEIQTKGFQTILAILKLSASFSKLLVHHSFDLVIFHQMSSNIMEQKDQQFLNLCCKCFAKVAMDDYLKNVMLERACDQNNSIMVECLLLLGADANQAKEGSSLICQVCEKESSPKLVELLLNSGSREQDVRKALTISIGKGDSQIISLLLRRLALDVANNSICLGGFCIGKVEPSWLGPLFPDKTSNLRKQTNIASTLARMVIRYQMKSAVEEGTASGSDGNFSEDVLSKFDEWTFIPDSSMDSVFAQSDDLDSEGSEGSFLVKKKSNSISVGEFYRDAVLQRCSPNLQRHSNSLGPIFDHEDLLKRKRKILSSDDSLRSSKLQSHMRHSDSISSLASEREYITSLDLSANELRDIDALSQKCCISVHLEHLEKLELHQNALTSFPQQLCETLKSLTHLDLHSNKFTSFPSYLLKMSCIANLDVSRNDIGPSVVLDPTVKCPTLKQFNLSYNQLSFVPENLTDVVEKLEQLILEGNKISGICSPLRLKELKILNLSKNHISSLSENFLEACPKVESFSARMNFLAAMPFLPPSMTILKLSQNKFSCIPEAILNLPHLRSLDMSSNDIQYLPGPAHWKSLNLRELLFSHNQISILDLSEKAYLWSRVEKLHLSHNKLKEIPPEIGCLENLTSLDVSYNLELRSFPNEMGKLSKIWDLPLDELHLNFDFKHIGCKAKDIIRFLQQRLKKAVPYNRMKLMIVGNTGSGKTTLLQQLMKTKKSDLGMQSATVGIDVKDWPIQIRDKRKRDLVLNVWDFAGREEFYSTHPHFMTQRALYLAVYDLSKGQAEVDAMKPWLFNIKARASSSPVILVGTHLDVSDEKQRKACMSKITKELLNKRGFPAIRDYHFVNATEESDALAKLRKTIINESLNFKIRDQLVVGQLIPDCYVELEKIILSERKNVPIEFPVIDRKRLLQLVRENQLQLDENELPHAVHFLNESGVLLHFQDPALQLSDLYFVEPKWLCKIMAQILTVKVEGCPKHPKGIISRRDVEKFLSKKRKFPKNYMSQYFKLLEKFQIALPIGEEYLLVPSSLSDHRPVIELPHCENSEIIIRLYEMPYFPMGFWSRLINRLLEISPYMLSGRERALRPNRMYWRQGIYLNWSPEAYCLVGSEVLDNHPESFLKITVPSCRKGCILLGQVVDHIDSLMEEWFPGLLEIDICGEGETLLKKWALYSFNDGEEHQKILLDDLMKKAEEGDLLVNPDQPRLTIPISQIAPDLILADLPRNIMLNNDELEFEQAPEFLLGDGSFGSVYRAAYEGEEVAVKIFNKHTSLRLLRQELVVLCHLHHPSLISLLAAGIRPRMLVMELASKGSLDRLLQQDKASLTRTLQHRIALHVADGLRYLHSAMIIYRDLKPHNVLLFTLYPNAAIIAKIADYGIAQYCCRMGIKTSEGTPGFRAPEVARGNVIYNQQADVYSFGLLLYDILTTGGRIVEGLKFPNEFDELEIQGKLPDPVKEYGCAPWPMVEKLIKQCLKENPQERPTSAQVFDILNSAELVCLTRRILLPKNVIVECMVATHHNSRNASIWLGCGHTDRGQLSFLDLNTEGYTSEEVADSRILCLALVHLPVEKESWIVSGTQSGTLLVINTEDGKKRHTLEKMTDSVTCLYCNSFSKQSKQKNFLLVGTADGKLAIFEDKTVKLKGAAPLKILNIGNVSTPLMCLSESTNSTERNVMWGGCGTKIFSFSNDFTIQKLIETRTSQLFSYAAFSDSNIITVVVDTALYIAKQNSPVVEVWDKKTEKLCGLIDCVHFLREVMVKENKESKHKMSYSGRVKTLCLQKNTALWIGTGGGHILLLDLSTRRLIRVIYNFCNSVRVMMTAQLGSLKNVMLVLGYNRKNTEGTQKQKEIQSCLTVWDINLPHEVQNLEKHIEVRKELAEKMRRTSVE
For orientation: In ADP-Glo the light output rises with the ADP produced.
As to `C[C@@H]1CCNC(=O)OCc2cc(c[nH]c2=O)-c2n[nH]c3ccc(cc23)O1` [Example 144, (13R)-13-methyl-8,14-dioxa-4,10,19,20-tetraazatetracyclo[13.5.2.1^2,6.0^18,21]tricosa-1(20),2,6(23),15,17,21-hexaene-5,9-dione], the pIC50 is more than 8.00. As for `Cn1nc2cc1CCOC(=O)NCCCOc1ccc3[nH]nc-2c3c1` [Example 145, 4-methyl-8,14-dioxa-3,4,10,19,20-pentaazatetracyclo[13.5.2.1^2,5.0^18,21]tricosa-1(20),2,5(23),15(22),16,18(21)-hexaen-9-one], the pIC50 was 6.00 to 7.00. For the compound `C[C@@H]1CCNC(=O)OCc2cccc(n2)-c2n[nH]c3cc(F)c(cc23)O1` [Example 146, (13R)-16-fluoro-13-methyl-8,14-dioxa-10,19,20,23-tetraazatetracyclo[13.5.2.1^2,6.0^18,21]tricosa-1(20),2,4,6(23),15,17,21-heptaen-9-one], the pIC50 is more than 8.00.

On to `O=C1NCCCOc2ccc3[nH]nc(c3c2)-c2csc(n2)CO1` [Example 147, 7,13-dioxa-4-thia-9,18,19,22-tetraazatetracyclo[12.5.2.1^2,5.0^17,20]docosa-1(19),2,5(22),14(21),15,17(20)-hexaen-8-one], for which the pIC50 was more than 8.00. `Cc1cc2nc(n1)COC(=O)NCC[C@@H](C)Oc1ccc3[nH]nc-2c3c1` [Example 148, (13R)-4,13-dimethyl-8,14-dioxa-5,10,19,20,23-pentaazatetracyclo[13.5.2. 1^2,6.0^18,21]tricosa-1(20),2(23),3,5,15(22),16,18(21)-heptaen-9-one]: the pIC50 was more than 8.00.

For the compound `O=C1NCCCOc2ccc3[nH]nc(c3c2)C2=CN=C(CCO1)S2` [Example 149, 8,14-dioxa-23-thia-4,10,19,20-tetraazatetracyclo[13.5.2.1^2,5.0^18,21]tricosa-1(20),2,4,15(22),16,18(21)-hexaen-9-one], the pIC50 was more than 8.00. In the case of `C[C@@H]1CCNC(=O)O[C@@H](C)c2cccc(n2)-c2n[nH]c3ccc(cc23)O1` [Example 150, (7S,13R)-7,13-dimethyl-8,14-dioxa-10,19,20,23-tetraazatetracyclo[13.5.2. 1^2,6.0^18,21]tricosa-1(20),2(23),3,5,15(22),16,18(21)-heptaen-9-one] it was 7.00 to 8.00; in that of `C[C@@H]1CCNC(=O)OCCn2cc(cc2C#N)-c2n[nH]c3ccc(cc23)O1` [Example 151, (13R)-13-methyl-9-oxo-8,14-dioxa-5,10,19,20-tetraazatetracyclo[13.5.2. 1^2,5.0^18,21]tricosa-1(20),2(23),3,15(22),16,18(21)-hexaene-4-carbonitrile], more than 8.00. The same measure for `O=C1NCC(F)(F)COc2ccc3[nH]nc(c3c2)-c2cccc(c2)CO1` [Example 152, 12,12-difluoro-8,14-dioxa-10,19,20-triazatetracyclo[13.5.2.1^2,6.0^18,21]tricosa-1(20),2(23),3,5,15(22),16,18(21)-heptaen-9-one]: more than 8.00; for `C[C@@H]1CCNC(=O)OCc2cccc(c2)-c2n[nH]c3c(F)cc(cc23)O1` [Example 153, (13R)-17-fluoro-13-methyl-8,14-dioxa-10,19,20-triazatetracyclo[13.5.2. 1^2,6.0^18,21]tricosa-1(20),2(23),3,5,15(22),16,18(21)-heptaen-9-one]: more than 8.00; for `C[C@@H]1CCNC(=O)O[C@@H](C)c2cncc(n2)-c2n[nH]c3ccc(cc23)O1` [Example 154, (7S,13R)-7,13-dimethyl-8,14-dioxa-4,10,19,20,23-pentaazatetracyclo[13.5.2.1^2,6.0^18,21]tricosa-1(20),2(23),3,5,15(22),16,18(21)-heptaen-9-one]: 7.00 to 8.00. In the case of `C[C@@H]1CCNC(=O)O[C@H](C)c2cncc(n2)-c2n[nH]c3ccc(cc23)O1` [Example 155, (7R,13R)-7,13-dimethyl-8,14-dioxa-4,10,19,20,23-pentaazatetracyclo[13.5. 2.1^2,6.0^18,21]tricosa-1(20),2(23),3,5,15(22),16,18(21)-heptaen-9-one] it was more than 8.00. In the case of `C[C@H]1CCNC(=O)OCc2cncc(n2)-c2n[nH]c3ccc(cc23)O1` [Example 156, (13S)-13-methyl-8,14-dioxa-4,10,19,20,23-pentaazatetracyclo[13.5.2. 1^2,6.0^18,21]tricosa-1(20),2(23),3,5,15(22),16,18(21)-heptaen-9-one], the pIC50 is more than 8.00. In the case of `C[C@@H]1CCNC(=O)OCc2cccc(c2)-c2n[nH]c3ccc(nc23)O1` [Example 157, (13R)-13-methyl-8,14-dioxa-10,19,20,22-tetraazatetracyclo[13.5.2. 1^2,6.0^18,21]tricosa-1(20),2(23),3,5,15,17,21-heptaen-9-one] it was more than 8.00; in that of `C[C@@H]1CCNC(=O)OCc2nc(cn2C)-c2n[nH]c3ccc(cc23)O1` [Example 158, (12R)-4,12-dimethyl-7,13-dioxa-4,9,18,19,22-pentaazatetracyclo[12.5.2. 1^2,5.0^17,20]docosa-1(19),2,5(22),14(21),15,17(20)-hexaen-8-one], 7.00 to 8.00; in that of `C[C@@H]1CCNC(=O)OCCn2ncc(n2)-c2n[nH]c3ccc(cc23)O1` [Example 159, (13R)-13-methyl-8,14-dioxa-4,5,10,19,20,23-hexaazatetracyclo[13.5.2.1^2,5.0^18,21]tricosa-1(20),2(23),3,15,17,21-hexaen-9-one], more than 8.00. The same measure for `C[C@@H]1CCNC(=O)OCCC2=NC=C(S2)c2n[nH]c3ccc(cc23)O1` [Example 160, (13R)-13-methyl-8,14-dioxa-23-thia-4,10,19,20-tetraazatetracyclo[13.5.2.1^2,5.0^18,21]tricosa-1(20),2,4,15,17,21-hexaen-9-one]: more than 8.00; for `C[C@@H]1CCNC(=O)OCCc2nc(cn2C)-c2n[nH]c3ccc(cc23)O1` [Example 161, (13R)-4,13-dimethyl-8,14-dioxa-4,10,19,20,23-pentaazatetracyclo[13.5.2.1^2,5.0^18,21]tricosa-1(20),2,5(23),15(22),16,18(21)-hexaen-9-one]: 7.00 to 8.00. Take `C[C@@H]1CCNC(=O)OCc2cccc(c2)-c2n[nH]c3cnc(cc23)O1` [Example 162, (13R)-13-methyl-8,14-dioxa-10,16,19,20-tetraazatetracyclo[13.5.2.1^2,6.0^18,21]tricosa-1(20),2(23),3,5,15(22),16,18(21)-heptaen-9-one]: the pIC50 was more than 8.00.

Turning to `CN1CCCNC(=O)OCc2cccc(c2)-c2n[nH]c3ccc1cc23` [Example 163, 14-methyl-8-oxa-10,14,19,20-tetraazatetracyclo[13.5.2.1^2,6.0^18,21]tricosa-1(20),2(23),3,5,15,17,21-heptaen-9-one], the pIC50 was more than 8.00. In the case of `C[C@@H]1CCNC(=O)OCc2cncc(c2)-c2n[nH]c3ccc(nc23)O1` [Example 164, (13R)-13-methyl-8,14-dioxa-4,10,19,20,22-pentaazatetracyclo[13.5.2. 1^2,6.0^18,21]tricosa-1(20),2(23),3,5,15,17,21-heptaen-9-one] it was more than 8.00. The same measure for `C[C@@H]1CCNC(=O)OCc2cccc(c2)-c2n[nH]c3ncc(cc23)O1` [Example 165, (13R)-13-methyl-8,14-dioxa-10,17,19,20-tetraazatetracyclo[13.5.2.1^2,6.0^18,21]tricosa-1(20),2(23),3,5,15(22),16,18(21)-heptaen-9-one]: more than 8.00.
